The subject of one data set is MCF-7 cells. Put plainly: MTT cytotoxicity assay. In kind it is cell-based. The conditions noted are these: FIG. 3A. The procedure: Cells were seeded in 96 well-plates (Corning, 3599) with 10,000 cells/well. […] The cellular media was replaced with media of the appropriate concentration of materials and incubated for a further 24 hours. MTT reagent was then added in the culture medium, followed by incubation at 37° C. for 3 h and the resulting purple crystal solubilized in DMSO. The absorbance was measured on a microplate reader (SynergyMx) at 590 nm, with the measurements performed in at least triplicate.

The test system of a further data set is NIS. Description: NIS expression by flow cytometry. The data set is classed as cell-based. The conditions noted are these: MCF-7 cells, tRA 1 μM. The procedure:
In addition to MCF-7, MDA-MB-231 cells, which have a low expression of NIS, were analyzed as a comparison.

Molecules are shown by their SMILES.

With `I` [iodide], the toxicity of iodide result in the data set on MCF-7 cells is listed as “little toxicity”. Consider `CC1=C(/C=C/C(C)=C/C=C/C(C)=C/C(=O)O)C(C)(C)CCC1` [tRA, Trans retinoic acid], for which, in the data set with NIS, the NIS expression result is given as “induced NIS expression”.

The values above are taken from patent publication US20250135050A1, “IODIDE NANOPARTICLES AND COMPOSITIONS OF METHODS OF USE THEREOF” (University of Georgia Research Foundation, Inc., priority 2021, published 2025).
